Measured values from ChEMBL document CHEMBL1145828, “Development of natural product-derived receptor tyrosine kinase inhibitors based on conservation of protein domain fold” (J Med Chem, 2003).
Activity calls are given as the source filed them. The rule behind the calls is not given here.

Tests used:
[1] = target: T1, Insulin-like growth factor 1 receptor (Homo sapiens, UniProt P08069); test: Inhibition of Insulin-like growth factor I receptor
[2] = target: T2, Receptor tyrosine-protein kinase erbB-2 (Homo sapiens, UniProt P04626); test: Inhibition of ERBB2 receptor kinase
T2 sequence (P04626 whole entry): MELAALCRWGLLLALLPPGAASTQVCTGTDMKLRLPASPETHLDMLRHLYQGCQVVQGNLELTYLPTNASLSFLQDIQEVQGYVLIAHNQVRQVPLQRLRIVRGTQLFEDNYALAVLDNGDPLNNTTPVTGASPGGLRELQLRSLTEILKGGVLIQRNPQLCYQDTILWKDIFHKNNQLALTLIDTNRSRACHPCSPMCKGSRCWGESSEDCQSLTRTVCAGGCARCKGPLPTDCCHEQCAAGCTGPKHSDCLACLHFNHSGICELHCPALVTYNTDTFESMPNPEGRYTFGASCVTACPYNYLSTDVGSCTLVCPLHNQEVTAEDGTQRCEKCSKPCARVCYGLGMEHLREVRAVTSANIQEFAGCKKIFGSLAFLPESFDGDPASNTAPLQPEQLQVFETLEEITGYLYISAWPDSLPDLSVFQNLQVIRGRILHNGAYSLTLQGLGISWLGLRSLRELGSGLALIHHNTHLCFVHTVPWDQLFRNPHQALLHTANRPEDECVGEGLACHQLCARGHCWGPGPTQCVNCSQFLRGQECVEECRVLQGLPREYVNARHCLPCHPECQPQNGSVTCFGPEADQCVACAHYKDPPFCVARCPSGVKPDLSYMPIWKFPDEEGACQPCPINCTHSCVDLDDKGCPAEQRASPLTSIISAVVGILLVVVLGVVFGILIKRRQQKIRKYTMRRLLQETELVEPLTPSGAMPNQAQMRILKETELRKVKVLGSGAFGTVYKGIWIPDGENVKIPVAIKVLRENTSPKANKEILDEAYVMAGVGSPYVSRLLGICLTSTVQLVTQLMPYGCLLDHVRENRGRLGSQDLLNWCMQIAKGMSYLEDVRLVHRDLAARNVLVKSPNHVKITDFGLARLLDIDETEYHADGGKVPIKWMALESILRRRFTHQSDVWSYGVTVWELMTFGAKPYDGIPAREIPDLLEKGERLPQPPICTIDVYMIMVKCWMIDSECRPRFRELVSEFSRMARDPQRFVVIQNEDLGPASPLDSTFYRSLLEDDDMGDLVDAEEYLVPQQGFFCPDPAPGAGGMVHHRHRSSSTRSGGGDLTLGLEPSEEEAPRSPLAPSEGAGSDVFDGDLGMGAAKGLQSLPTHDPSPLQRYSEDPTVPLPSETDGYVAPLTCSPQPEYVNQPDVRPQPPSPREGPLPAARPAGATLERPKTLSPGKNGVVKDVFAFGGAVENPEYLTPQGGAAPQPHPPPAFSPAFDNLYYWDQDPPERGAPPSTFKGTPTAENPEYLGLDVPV

[3] = target: T3, Vascular endothelial growth factor receptor 3 (Homo sapiens, UniProt P35916); test: Inhibition of Vascular endothelial growth factor receptor 3 (No effect)
T3 sequence (P35916 whole entry): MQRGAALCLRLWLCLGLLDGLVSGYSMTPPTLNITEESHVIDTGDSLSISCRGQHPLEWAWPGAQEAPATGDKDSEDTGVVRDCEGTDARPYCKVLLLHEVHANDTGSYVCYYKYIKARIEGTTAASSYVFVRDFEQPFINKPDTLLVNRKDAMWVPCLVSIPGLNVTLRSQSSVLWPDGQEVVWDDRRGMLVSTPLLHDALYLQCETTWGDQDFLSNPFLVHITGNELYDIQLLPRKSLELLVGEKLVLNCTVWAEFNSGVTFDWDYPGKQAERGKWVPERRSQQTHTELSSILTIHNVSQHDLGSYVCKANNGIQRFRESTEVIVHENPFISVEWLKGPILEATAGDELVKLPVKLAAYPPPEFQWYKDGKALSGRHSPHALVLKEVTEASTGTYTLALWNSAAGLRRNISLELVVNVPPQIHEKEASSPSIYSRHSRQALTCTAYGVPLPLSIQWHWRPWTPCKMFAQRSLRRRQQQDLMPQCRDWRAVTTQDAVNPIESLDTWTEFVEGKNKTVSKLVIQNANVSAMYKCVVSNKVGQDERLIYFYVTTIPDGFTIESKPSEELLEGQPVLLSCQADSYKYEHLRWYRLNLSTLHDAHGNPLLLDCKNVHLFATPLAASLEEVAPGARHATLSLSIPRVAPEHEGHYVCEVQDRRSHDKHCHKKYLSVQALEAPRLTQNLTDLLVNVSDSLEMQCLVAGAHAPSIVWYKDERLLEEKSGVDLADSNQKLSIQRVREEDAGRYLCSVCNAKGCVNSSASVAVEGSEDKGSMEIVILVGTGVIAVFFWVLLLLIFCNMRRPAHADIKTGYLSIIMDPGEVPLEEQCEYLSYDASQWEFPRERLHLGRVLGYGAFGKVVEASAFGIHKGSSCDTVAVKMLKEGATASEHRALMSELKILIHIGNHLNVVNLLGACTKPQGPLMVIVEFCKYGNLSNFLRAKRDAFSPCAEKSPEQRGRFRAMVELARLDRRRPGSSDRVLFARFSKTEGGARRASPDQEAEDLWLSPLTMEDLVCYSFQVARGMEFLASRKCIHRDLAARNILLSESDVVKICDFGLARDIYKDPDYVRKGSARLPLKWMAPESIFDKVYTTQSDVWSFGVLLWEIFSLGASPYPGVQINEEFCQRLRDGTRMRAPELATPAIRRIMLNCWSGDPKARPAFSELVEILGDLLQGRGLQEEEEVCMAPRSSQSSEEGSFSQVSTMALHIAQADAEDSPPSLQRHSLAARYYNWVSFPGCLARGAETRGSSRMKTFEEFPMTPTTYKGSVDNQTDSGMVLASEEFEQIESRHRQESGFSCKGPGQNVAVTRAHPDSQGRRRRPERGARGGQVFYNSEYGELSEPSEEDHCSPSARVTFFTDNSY

[4] = target: T4, Vascular endothelial growth factor receptor 2 (Homo sapiens, UniProt P35968); test: Inhibition of Vascular endothelial growth factor receptor 2
Angiopoietin-1 receptor [5] = target: T5, Angiopoietin-1 receptor (Homo sapiens, UniProt Q02763); test: Inhibition of Tyrosine protein kinase receptor TIE-2 (No effect)
T5 sequence (Q02763 whole entry): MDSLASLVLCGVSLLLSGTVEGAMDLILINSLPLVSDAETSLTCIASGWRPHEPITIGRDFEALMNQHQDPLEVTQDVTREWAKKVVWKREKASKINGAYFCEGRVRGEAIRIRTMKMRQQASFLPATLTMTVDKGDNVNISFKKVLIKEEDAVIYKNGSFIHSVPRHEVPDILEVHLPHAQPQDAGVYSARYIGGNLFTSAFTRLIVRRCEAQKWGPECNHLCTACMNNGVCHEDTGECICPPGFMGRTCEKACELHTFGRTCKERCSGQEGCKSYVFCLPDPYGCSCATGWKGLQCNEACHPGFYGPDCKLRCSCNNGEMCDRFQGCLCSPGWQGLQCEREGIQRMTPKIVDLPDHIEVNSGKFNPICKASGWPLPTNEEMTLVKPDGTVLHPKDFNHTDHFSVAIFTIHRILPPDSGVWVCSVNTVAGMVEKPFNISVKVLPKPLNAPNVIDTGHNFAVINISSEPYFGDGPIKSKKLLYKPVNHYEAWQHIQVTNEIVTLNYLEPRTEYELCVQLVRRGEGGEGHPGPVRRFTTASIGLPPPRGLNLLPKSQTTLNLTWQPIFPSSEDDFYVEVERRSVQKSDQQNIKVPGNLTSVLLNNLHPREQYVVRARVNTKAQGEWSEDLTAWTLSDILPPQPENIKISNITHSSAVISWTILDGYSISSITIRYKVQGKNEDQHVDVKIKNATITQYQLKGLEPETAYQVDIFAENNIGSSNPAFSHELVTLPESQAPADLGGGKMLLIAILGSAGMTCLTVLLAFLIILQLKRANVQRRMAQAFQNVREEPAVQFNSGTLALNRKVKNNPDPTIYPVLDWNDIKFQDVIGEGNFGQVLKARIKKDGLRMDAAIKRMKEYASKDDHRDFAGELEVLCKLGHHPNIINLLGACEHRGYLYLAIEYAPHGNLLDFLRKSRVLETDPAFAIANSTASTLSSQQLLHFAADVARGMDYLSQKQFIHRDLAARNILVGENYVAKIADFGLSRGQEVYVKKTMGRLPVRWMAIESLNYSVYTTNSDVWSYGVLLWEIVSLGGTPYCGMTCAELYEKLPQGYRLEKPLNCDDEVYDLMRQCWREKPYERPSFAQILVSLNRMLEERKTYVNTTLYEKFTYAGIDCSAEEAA

[6] = target: T6, Epidermal growth factor receptor (Homo sapiens, UniProt P00533); test: Inhibition of Epidermal growth factor receptor (No effect)
T6 sequence (P00533 whole entry): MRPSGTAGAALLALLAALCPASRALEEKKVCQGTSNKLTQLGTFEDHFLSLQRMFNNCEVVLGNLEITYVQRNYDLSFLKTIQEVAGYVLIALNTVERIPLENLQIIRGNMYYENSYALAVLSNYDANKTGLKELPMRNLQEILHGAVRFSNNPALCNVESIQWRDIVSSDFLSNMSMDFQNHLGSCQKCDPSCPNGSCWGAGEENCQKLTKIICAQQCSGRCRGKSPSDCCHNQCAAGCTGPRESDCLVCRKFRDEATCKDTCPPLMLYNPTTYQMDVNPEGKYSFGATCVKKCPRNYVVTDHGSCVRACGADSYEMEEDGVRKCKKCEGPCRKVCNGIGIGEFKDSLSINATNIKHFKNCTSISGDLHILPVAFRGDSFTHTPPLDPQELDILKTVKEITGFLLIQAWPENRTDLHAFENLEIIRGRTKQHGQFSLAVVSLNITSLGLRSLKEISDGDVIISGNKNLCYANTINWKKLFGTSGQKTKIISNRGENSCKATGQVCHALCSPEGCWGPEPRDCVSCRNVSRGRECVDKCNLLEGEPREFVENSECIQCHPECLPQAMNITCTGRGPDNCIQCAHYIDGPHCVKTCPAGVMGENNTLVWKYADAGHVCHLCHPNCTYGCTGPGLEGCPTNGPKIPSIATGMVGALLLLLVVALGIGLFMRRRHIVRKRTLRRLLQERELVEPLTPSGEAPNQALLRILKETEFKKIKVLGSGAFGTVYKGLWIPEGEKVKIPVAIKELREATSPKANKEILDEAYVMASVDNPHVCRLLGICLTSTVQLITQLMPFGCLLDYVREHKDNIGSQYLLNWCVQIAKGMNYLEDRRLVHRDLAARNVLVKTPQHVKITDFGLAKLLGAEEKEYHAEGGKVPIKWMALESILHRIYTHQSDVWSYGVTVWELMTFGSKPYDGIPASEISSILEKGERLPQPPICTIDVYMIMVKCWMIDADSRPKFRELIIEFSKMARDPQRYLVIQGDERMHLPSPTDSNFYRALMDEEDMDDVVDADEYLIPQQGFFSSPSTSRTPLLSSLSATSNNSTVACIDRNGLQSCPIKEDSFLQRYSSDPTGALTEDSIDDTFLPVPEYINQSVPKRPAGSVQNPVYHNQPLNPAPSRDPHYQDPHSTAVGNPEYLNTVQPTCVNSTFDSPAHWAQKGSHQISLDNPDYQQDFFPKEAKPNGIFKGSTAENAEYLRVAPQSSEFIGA

[7] = target: T2, Receptor tyrosine-protein kinase erbB-2; test: Inhibition of ERBB2 receptor kinase (No effect)
[8] = target: T1, Insulin-like growth factor 1 receptor; test: Inhibition of Insulin-like growth factor I receptor (No effect)
[9] = target: T4, Vascular endothelial growth factor receptor 2; test: Inhibition of Vascular endothelial growth factor receptor 2 (No effect)
Angiopoietin-1 receptor [10] = target: T5, Angiopoietin-1 receptor; test: Inhibition of Tyrosine protein kinase receptor TIE-2
[11] = target: T6, Epidermal growth factor receptor; test: Inhibition of Epidermal growth factor receptor
[12] = target: T3, Vascular endothelial growth factor receptor 3; test: Inhibition of Vascular endothelial growth factor receptor 3

IC50 [1] | IC50 [2] | NI [3] | IC50 [4] | NI (Angiopoietin-1 receptor [5]) | NI [6] | NI [7] | NI [8] | NI [9] | IC50 (Angiopoietin-1 receptor [10]) | IC50 [11] | IC50 [12] | SMILES
> 50 µM | > 100 µM | inactive | 8 µM | inactive | inactive | – | – | – | – | – | – | COC1=CC(=O)C(N[C@@H](CO)C(=O)O)=CC1=O
– | – | inactive | 20 µM | inactive | inactive | inactive | inactive | – | – | – | – | CC1=CCC[C@H]2[C@](C)(CC3=C(O)C(O)=C/C(=N\[C@@H](CO)C(=O)O)C3=O)[C@H](C)CC[C@]12C
6 µM | – | – | – | – | – | inactive | – | inactive | 5 µM | 44 µM | 3 µM | CC(O)C(/N=C1C=C(O)/C(=N\C(C(=O)O)C(C)O)C=C/1O)C(=O)O (configuration not stated)
– | > 100 µM | inactive | – | – | – | – | inactive | inactive | 14 µM | > 100 µM | – | COC1=CC(=O)C=C(/C=C2\CCCC3CCCCC23)C1=O (configuration not stated)
– | – | inactive | – | – | inactive | inactive | inactive | inactive | 18 µM | – | – | COC1=CC(=O)C=C(Cc2ccccc2)C1=O
– | 29 µM | inactive | – | inactive | inactive | – | inactive | inactive | – | – | – | COC1=CC(=O)C=CC1=O
0.5 µM | – | inactive | > 50 µM | – | – | inactive | – | – | 9 µM | > 100 µM | – | CC(O)C(/N=C1\C(O)=CC(=O)C(O)=C1CC1CCCC2CCCCC21)C(=O)O (configuration not stated)
